Measurements from patent publication US20150025074A1, “METHODS AND COMPOSITIONS FOR TREATING SOLID TUMORS AND OTHER MALIGNANCIES” (priority 2009, published 2015).
Like-named read-outs stand apart in the source and are kept apart here.

How the values were obtained:
[1] = test system: medulloblastoma cells derived from sensitive Ptch+/−Hic+/− medulloblastoma tumors; experiment: ex-vivo medulloblastoma proliferation assay (48 h, 3H thymidine incorporation), sensitive tumors; format: cell-based; settings: Mus musculus, Medulloblastoma cell
Experimental: (§1) The effect of mTor inhibitors (e.g., compounds such as Compound A) on the proliferation of medulloblastoma cells derived from sensitive and resistant medulloblastoma tumors was evaluated by using an “ex-vivo medulloblastoma proliferation assay. Sensitive tumors means tumors (e.g., medulloblastomas) which, due to hedgehog pathway activation, respond to treatment with a smoothened inhibitor anti-cancer regimen. Resistant tumors means formerly sensitive tumors (e.g., medulloblastomas) which, in the continuos presence of a smo inhibitor, either have regrown after shrinking due to treatment, or have reappeared after being temporarily eliminated due to treatment. Resistant tumors show a decreased sensitivity or no response to smoothened inhibition.
(§2) Using Ptch+/−Hic+/− medulloblastoma tumors freshly harvested from allografted nude mice, we have developed a short-term 48 h proliferation assay that enables us to assess the in vitro potency of Smo inhibitors. The read-out for proliferation uses incorporation of 3H thymidine. The assay reflects the in vivo sensitivity of tumor cells to Compound 1.
(§3) Table 1 summarizes the results of treating medulloblastoma cells in culture with Compound 1 (Smo inhibitor) and Compound A (mTor inhibitor), or combinations thereof. […] The potency of compound A in resistant tumors was increased in the presence of 5 and 20 uM of compound 1.

[2] = test system: Ptch+/−Hic+/− medulloblastoma allograft; experiment: Ptch+/−Hic+/− subcutaneous medulloblastoma allograft model; format: in vivo, Harlan nu/nu mice; settings: po; for effect on tumor growth / tumor volume: 80 mg/kg qd Compound 1, 10 mg/kg qd Compound A, or combination, FIG. 1
Experimental: Mouse medulloblastoma cells (1.0-5.0×10^6), dissociated directly from tumor fragments originally derived from spontaneously arising medulloblastomas in Ptch+/−Hic+/− mice, were inoculated subcutaneously into the right flank of Harlan nu/nu mice. Treatment was initiated approximately 7-10 days post implantation. […] Tumor volumes (mm3) and body weights (g) were recorded two or three times per week from all groups for analysis. Dose was body weight adjusted at time of dosing. Comparisons between treatment groups was performed using a non-parametric Kruskal-Wallis/Wilcoxon Rank Sum Test.
Tumors were calipered in two dimensions, and the volumes were calculated using the formula: (length×width2)/2, where length is the longer of the two measurements and width is the shorter one. Percent treatment/control (% T/C) values were calculated using the following formula: % T/C=100×ΔTf-i/ΔCf-i if ΔTf-i>0, % T/T0-100×ΔTf-i/T0 if ΔTf-i<0 (regression). A partial responder (PR) was defined as an animal whose tumor […] was less than 50% of the initial tumor volume by the end of the study. An animal with no palpable tumor by the end of study is defined as a complete responder (CR).
Ptch+/− mice develop medulloblastoma spontaneously (Romer, et al., Cancer Cell, Volume 6, Issue 3, pages 229-24, 2004). […] The heterozygous loss of Hic results in an earlier onset and increases the incidence rate of medulloblastomas (Briggs et al., Genes & Dev., 22: pages 770-785 2008). The in vivo efficacy of Compound 1 was evaluated in Ptch+/−Hic+/− mouse medulloblastoma allograft models, derived from corresponding transgenic mice and passaged in vivo, and following long-term continuous dosing. The following experiments were performed to evaluate if mTor inhibitors could be used either alone or in combination to treat resistant tumors or to overcome the development of resistance to Smo antagonists.
Next, a combination of Compound 1 and Compound A was explored in the Ptch+/−Hic+/− medulloblastoma allograft model.

[3] = test system: medulloblastoma cells derived from resistant Ptch+/−Hic+/− medulloblastoma tumors; experiment: ex-vivo medulloblastoma proliferation assay (48 h, 3H thymidine incorporation), resistant tumors; format: cell-based, mouse; settings: for IC50: Mus musculus, Medulloblastoma cell
Experimental: as §1, §2, §3

[4] = Tumor type Sensitive, single agent, 48 h, 3H thymidine, read-out: IC50, proliferation of medulloblastoma cells
[5] = Tumor type Resistant, single agent, 48 h, 3H thymidine, read-out: IC50, proliferation of medulloblastoma cells

| Compound | IC50 [1, 4] | IC50 ([1]; sensitive cells, read-out: IC50, inhibition of sensitive cells) | effect on tumor growth / tumor volume [2] | time to endpoint (tumor volume>700 mm3), in words ([2]; 80 mg/kg qd Compound 1, or combination with 10 mg/kg qd Compound A, FIG. 2) | IC50 [3, 5] | IC50 ([3]; resistant tumors, read-out: IC50 in resistant tumors) | time to endpoint (tumor volume>700 mm3) ([2]; 10 mg/kg qd Compound A, FIG. 2) | potency of compound A in resistant tumors ([3]; in the presence of 5 and 20 uM of compound 1) | inhibition of both sensitive and resistant tumors (comparison of IC50s) ([3]; resistant compared with sensitive tumors) |
| --- | --- | --- | --- | --- | --- | --- | --- | --- | --- |
| Cc1c(C(=O)Nc2ccc(N3C[C@@H](C)O[C@@H](C)C3)nc2)cccc1-c1ccc(OC(F)(F)F)cc1 [Compound 1, 2-Methyl-4′-trifluoromethoxy-biphenyl-3-carboxylic acid [6-(cis-2,6-dimethyl-morpholin-4-yl)-pyridin-3-yl]-amide] | 8 nM | 8 nM | initially induced regression but tumors started to regrow | significantly prolonged | 9080 nM | 9000 nM | – | – | – |
| CO[C@H]1C[C@@H]2CC[C@@H](C)[C@@](O)(O2)C(=O)C(=O)N2CCCC[C@H]2C(=O)O[C@H]([C@H](C)C[C@@H]2CC[C@@H](OCCO)[C@H](OC)C2)CC(=O)[C@H](C)/C=C(\C)[C@@H](O)[C@@H](OC)C(=O)[C@H](C)C[C@H](C)/C=C/C=C/C=C/1C [Compound A, (1R,9S,12S,15R,16E,18R,19R,21R,23S,24E,26E,28E,30S,32S,35R)-1,18-dihydroxy-12-{(1R)-2-[(1S,3R,4R)-4-(2-hydroxyethoxy)-3-methoxycyclohexyl]-1-methylethyl}-19,30-dimethoxy-15,17,21,23,29,35-hexamethyl-11,36-dioxa-4-aza-tricyclol-[30.3.1.04.9]hexatriaconta-16,24,26,28-tetraene-2,3,10,14,20-pentaone] | 9 nM | – | only a moderate effect on tumor growth compared to vehicle control | – | 2 nM | – | ~20 days | increased | inhibited both sensitive and resistant tumors with similar IC50s |
